Data on 10 compounds can be found in ChEMBL document CHEMBL1201862, “PubChem BioAssay data set” (2004).

Some test systems named below: TK-10; CAKI-1; EKVX; SF-295; OVCAR-8; SF-539; SK-OV-3; UO-31; OVCAR-3; A498; COLO 205; IGROV-1; UACC-62; MOLT-4; OVCAR-5; DU-145; CCRF-CEM; KM12; Malme-3M; SK-MEL-28.
Holding throughout (experiment): DTP human tumour cell line panel, 48 h

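A five-concentration, 48-hour dose response in 96-well plates underlies each endpoint, interpolated linearly between surrounding concentrations. Here, GI50 denotes the concentration required for 50% inhibition of growth.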 Activity calls are given as the source filed them. No stated cut-off is given here; in the data, active = GI50 up to about 1.1 µM and inactive = higher. A value given as a limit tells only on which side of the number the result lay.

By GI50 is commonly meant the concentration giving 50% growth inhibition. Turning to `Cc1c(C#N)c2nnn(-c3ccccc3)c(=O)n2c1-c1ccccc1`, the GI50 was > 59.6 µM (inactive) in the experiment on TK-10; 2.42 µM (inactive) in the experiment on CAKI-1; 2.61 µM (inactive) in the experiment on EKVX; 0.752 µM (active) in the experiment on SF-295; 7.19 µM (inactive) with OVCAR-8; 1.17 µM (inactive) in the experiment on SF-539. Besides, the GI50 with SK-OV-3 is 1.41 µM (inactive); in the experiment with UO-31, 5.75 µM (inactive); in the experiment with OVCAR-3, 0.824 µM (active); with A498 it was 2.1 µM (inactive); in the experiment on COLO 205 it was 0.49 µM (active); in the experiment on IGROV-1 it was 1.48 µM (inactive). Further, the GI50 in the experiment with UACC-62 was 4.79 µM (inactive); in the experiment on MOLT-4, 1.58 µM (inactive); in the experiment on OVCAR-5, 1.89 µM (inactive); in the experiment on DU-145 it was 1.73 µM (inactive); in the experiment on CCRF-CEM, 2.24 µM (inactive); in the experiment on KM12, 0.839 µM (active). Also, in the experiment on Malme-3M, the GI50 was 26.5 µM (inactive).

In the case of `S=C=NC1CCC(c2cc3ccccc3s2)(N2CCCCC2)CC1` (stereo not given), the GI50 was 2 µM (inactive) in the experiment on TK-10; 1.88 µM (inactive) with CAKI-1; 1.6 µM (inactive) with SK-MEL-28; 2.16 µM (inactive) with EKVX; 2.58 µM (inactive) with SF-295; 1.95 µM (inactive) in the experiment on OVCAR-8. For the same compound, the GI50 is 1.95 µM (inactive) in the experiment with SF-539; 2.22 µM (inactive) in the experiment on SK-OV-3; 2.19 µM (inactive) in the experiment on UO-31; 2.09 µM (inactive) in the experiment on OVCAR-3; 2.26 µM (inactive) in the experiment with A498; 1.98 µM (inactive) with COLO 205. In addition, the GI50 with UACC-62 was 1.76 µM (inactive); in the experiment with MOLT-4, 0.127 µM (active); in the experiment with OVCAR-5, 1.75 µM (inactive); in the experiment with DU-145 it was 2.08 µM (inactive); in the experiment with CCRF-CEM, 0.577 µM (active); with KM12 it was 1.87 µM (inactive). In addition, the GI50 in the experiment on Malme-3M was 1.61 µM (inactive).

Consider `CCN(CC)Cc1ccccc1CC(=O)N1c2ccccc2C(=O)Nc2cccnc21`, for which the GI50 in the experiment with TK-10, in the experiment with CAKI-1, with SK-MEL-28, in the experiment on EKVX, in the experiment with SF-295 and in the experiment on OVCAR-8 was > 100 µM (inactive) each time. For the same compound, the GI50 in the experiment with SF-539 was > 100 µM (inactive); in the experiment with SK-OV-3, > 100 µM (inactive); in the experiment with OVCAR-3, > 100 µM (inactive); in the experiment with A498, > 100 µM (inactive); in the experiment with COLO 205 it was 86.1 µM (inactive); in the experiment on IGROV-1, > 100 µM (inactive). Moreover, the GI50 in the experiment on UACC-62 is > 100 µM (inactive); in the experiment on MOLT-4, 46.7 µM (inactive); with OVCAR-5, > 100 µM (inactive); in the experiment with DU-145 it was > 100 µM (inactive); with CCRF-CEM, 33.7 µM (inactive); with KM12, > 100 µM (inactive). Also, the GI50 in the experiment with Malme-3M was > 100 µM (inactive).

As to `O=C(Nc1cc(Cl)c(I)c(Cl)c1)C(F)(F)F`, the GI50 was 19.9 µM (inactive) with CAKI-1; 25.2 µM (inactive) in the experiment on SK-MEL-28; 18.3 µM (inactive) in the experiment with EKVX; 33.3 µM (inactive) with SF-295; 20.1 µM (inactive) with OVCAR-8; > 10 µM (inactive) in the experiment with SF-539. For the same compound, the GI50 was 31 µM (inactive) in the experiment on SK-OV-3; 23.6 µM (inactive) in the experiment with UO-31; 24.9 µM (inactive) in the experiment on OVCAR-3; 22.9 µM (inactive) in the experiment with A498; 21.5 µM (inactive) in the experiment on COLO 205; 27.2 µM (inactive) in the experiment on IGROV-1. Also, the GI50 in the experiment with UACC-62 was 20.3 µM (inactive); in the experiment on MOLT-4, 26.5 µM (inactive); with OVCAR-5, 22.8 µM (inactive); with DU-145, 42 µM (inactive); in the experiment with CCRF-CEM, 24.8 µM (inactive); with KM12, 27.5 µM (inactive). The GI50 in the experiment with Malme-3M is > 10 µM (inactive).

Consider `COc1cc2c(c(O)c1OC)C(=O)C1CCC(=O)N1C2c1cccc2ccccc12` (stereo not given), for which the GI50 is 85.1 µM (inactive) in the experiment with CAKI-1; 73.6 µM (inactive) with SK-MEL-28; 37.5 µM (inactive) in the experiment with EKVX; 43.2 µM (inactive) with SF-295; 49.1 µM (inactive) in the experiment with OVCAR-8; 41.5 µM (inactive) in the experiment on SF-539. Besides, the GI50 in the experiment on SK-OV-3 was 18.7 µM (inactive); in the experiment on UO-31 it was 31.3 µM (inactive); in the experiment on OVCAR-3, 30.6 µM (inactive); in the experiment with A498, > 100 µM (inactive); in the experiment on COLO 205 it was 15.4 µM (inactive); in the experiment on IGROV-1, 36.1 µM (inactive). Moreover, the GI50 with UACC-62 was 58.5 µM (inactive); with MOLT-4, 21.4 µM (inactive); with OVCAR-5 it was 94.4 µM (inactive); in the experiment on DU-145, > 100 µM (inactive); with CCRF-CEM, 18.5 µM (inactive); in the experiment with KM12 it was 42.3 µM (inactive). In the experiment with Malme-3M, the GI50 is 81.8 µM (inactive).

Take `CCN(CC)CCO/N=C1/C=C2CCC3C(CC[C@@]4(C)C3CC[C@]4(C)O)[C@@]2(C)CC1` (stereo not given in full): the GI50 in the experiment with TK-10 is 15.2 µM (inactive); in the experiment on CAKI-1 it was 4.52 µM (inactive); with EKVX, 6.21 µM (inactive); in the experiment with SF-295 it was 2.33 µM (inactive); in the experiment with OVCAR-8 it was 5.21 µM (inactive); in the experiment on SF-539 it was 3.18 µM (inactive). Besides, the GI50 was 14.3 µM (inactive) in the experiment on SK-OV-3; 5.41 µM (inactive) in the experiment on UO-31; 2.8 µM (inactive) with OVCAR-3; 0.195 µM (active) in the experiment with A498; 4.16 µM (inactive) in the experiment with COLO 205; 4.8 µM (inactive) with IGROV-1. Further, the GI50 is 2.76 µM (inactive) with UACC-62; 1.91 µM (inactive) in the experiment with MOLT-4; 16.5 µM (inactive) in the experiment with OVCAR-5; 6.37 µM (inactive) in the experiment on DU-145; 1.29 µM (inactive) in the experiment with CCRF-CEM; 5.43 µM (inactive) with KM12. Besides, in the experiment with Malme-3M, the GI50 was 3.64 µM (inactive).

With `N#CC(c1nc2ccccc2s1)c1ncnc(Cl)c1[N+](=O)[O-]` (stereo not given), the GI50 with TK-10 was 34.3 µM (inactive); in the experiment with CAKI-1, 25.2 µM (inactive); in the experiment on SK-MEL-28, 19.9 µM (inactive); in the experiment on EKVX, 23.2 µM (inactive); in the experiment on SF-295 it was > 100 µM (inactive); in the experiment with OVCAR-8, 18.5 µM (inactive). For the same compound, the GI50 is 30.3 µM (inactive) in the experiment on SF-539; 37.8 µM (inactive) with SK-OV-3; 27.9 µM (inactive) in the experiment on UO-31; 20.1 µM (inactive) in the experiment with OVCAR-3; > 100 µM (inactive) in the experiment with A498; 15.5 µM (inactive) in the experiment with COLO 205. Moreover, the GI50 in the experiment on IGROV-1 is 14.6 µM (inactive); in the experiment with MOLT-4 it was 31.8 µM (inactive); with OVCAR-5, 24.3 µM (inactive); in the experiment with DU-145 it was 34.1 µM (inactive); in the experiment with CCRF-CEM, 0.361 µM (active); with KM12, 32.5 µM (inactive). Moreover, in the experiment with Malme-3M, the GI50 is 19.4 µM (inactive).

With `C1CCN2CC34CC(CC5CCCN(C6CCCC3N6)C54)C2C1` (stereo not given), the GI50 in the experiment on TK-10, with CAKI-1, with SK-MEL-28, in the experiment with EKVX, in the experiment on SF-295 and in the experiment on OVCAR-8 was > 100 µM (inactive) throughout. The GI50 in the experiment with SF-539, in the experiment with SK-OV-3, in the experiment on OVCAR-3, in the experiment with A498, in the experiment on COLO 205 and in the experiment on IGROV-1 was > 100 µM (inactive) throughout. Moreover, the GI50 in the experiment with UACC-62, in the experiment on MOLT-4, with OVCAR-5, in the experiment with DU-145, in the experiment on CCRF-CEM and in the experiment with KM12 was > 100 µM (inactive) each time. In the experiment with Malme-3M, the GI50 is > 100 µM (inactive).

Turning to `N=c1c2c(=S)n(-c3ccccc3)c(=S)n(-c3ccccc3)c2nc(SCCN2CCOCC2)n1-c1ccccc1`, the GI50 with TK-10 is 1.71 µM (inactive); in the experiment on CAKI-1, 1.94 µM (inactive); in the experiment with SK-MEL-28, 2.1 µM (inactive); in the experiment on EKVX, 3.16 µM (inactive); with SF-295, 7.19 µM (inactive); in the experiment with OVCAR-8, 2.06 µM (inactive). In addition, the GI50 was 3.83 µM (inactive) in the experiment with SF-539; 6.1 µM (inactive) in the experiment with SK-OV-3; 1.8 µM (inactive) in the experiment with OVCAR-3; 3.52 µM (inactive) in the experiment on A498; 1.99 µM (inactive) with COLO 205; 1.76 µM (inactive) with IGROV-1. For the same compound, the GI50 in the experiment on UACC-62 was 1.81 µM (inactive); in the experiment with MOLT-4, 1.46 µM (inactive); in the experiment with OVCAR-5 it was 18.4 µM (inactive); with DU-145, 1.83 µM (inactive); in the experiment on CCRF-CEM, 1.38 µM (inactive); in the experiment with KM12 it was 2.44 µM (inactive). Also, the GI50 with Malme-3M was 1.66 µM (inactive).

As to `COc1cc(-c2c3c(cc4c2OCO4)[C@@H](Nc2ccc4c(c2)Cc2cc(N[C@@H]5c6cc7c(cc6C(c6cc(OC)c(O)c(OC)c6)[C@H]6C(=O)OC[C@H]56)OCO7)ccc2-4)[C@H]2COC(=O)[C@@H]2C3)cc(OC)c1O` (stereo not given in full), the GI50 in the experiment with TK-10 is 31 µM (inactive); in the experiment on CAKI-1, 23.4 µM (inactive); with SK-MEL-28 it was 15.5 µM (inactive); with EKVX it was 74.6 µM (inactive); in the experiment on SF-295 it was 20.3 µM (inactive); with OVCAR-8 it was 40.6 µM (inactive). Also, the GI50 was 0.977 µM (active) in the experiment on SF-539; 14.8 µM (inactive) in the experiment with SK-OV-3; 21.9 µM (inactive) in the experiment with UO-31; 55.5 µM (inactive) in the experiment with OVCAR-3; 44.3 µM (inactive) in the experiment with A498; 15.3 µM (inactive) with COLO 205. Besides, the GI50 was 1.56 µM (inactive) with IGROV-1; > 100 µM (inactive) in the experiment with MOLT-4; 27.8 µM (inactive) in the experiment with OVCAR-5; 26.3 µM (inactive) in the experiment with DU-145; > 100 µM (inactive) in the experiment with CCRF-CEM; 26.5 µM (inactive) in the experiment with KM12. The GI50 with Malme-3M was 14.8 µM (inactive).
